Assay results published in US12194015B2, “Composition comprising ferrous amino acid particles and method for treating or ameliorating pancreas-related disease using the same” (priority 2018, dated 2025).
Several values for one entry are separate records, joined by “and”; a condition that tells them apart may be missing. Equal values may be shown once.

Columns and labels:
[1] = test system: orthotopic xenograft pancreatic cancer (PANC-1); assay: Therapeutic effect (II) with gemcitabine cycles: tumor growth (IVIS) and survival (Example 7); type: in vivo, NOD-SCID mice; conditions: for inhibition of the tumor growth of the orthotopic xenograft pancreatic cancer compared to control: composition 24 mg/kg daily, gemcitabine 100 mg/kg in gemcitabine cycles
Method: The human pancreatic adenocarcinoma cell line PANC-1 obtained from preparation example 2 was cloned and labelled with luminescence and fluorescence vector. The luminescence and fluorescence-labelled cells were implanted into pancreas of experimental mice (40 NOD-SCID experimental mice purchased from BioLASCO Taiwan Co., Ltd) with a cell number of 5×10^5 by surgery. 10 days after the cell implantation to the pancreas of the animals, the baseline data was measured by noninvasive in vivo imaging system (IVIS). After the baseline IVIS data were obtained, all the experimental mice were randomly and evenly assigned into groups [the value of mean±3 s.d. of measured IVIS data was calculated, and the animals having an IVIS data within the standard range were assigned into control group (physiological saline was used), the group of the composition of the present invention (24 mg/kg the composition obtained for preparation example 1 was administrated daily), gemcitabine group (100 mg/kg gemcitabine was administered by intravenous injection twice per week continuously for three weeks and discontinuing gemcitabine on the fourth week. These four weeks were named as gemcitabine cycle. There were three gemcitabine cycles in the present example.), and the combination group (100 mg/kg gemcitabine was administered by intravenous injection twice per week continuously for three weeks, and discontinuing gemcitabine on the fourth week, and the 24 mg/kg composition of the present invention obtained from the preparation example 1 were administered daily). […] The time points of IVIS data measurement of this example were: Baseline 10 Day (Baseline 10D), the 17th day (7 days after treatment), the 24th day (14 days after treatment), the 31st day (21 days after treatment), the 38th day (28 days after treatment), the 45th day (35 days after treatment), and the 59th day (49 days after treatment) of experiment. The blood of the experimental mice was collected and the T-bilirubin, GOT, and GPT in blood were examined to monitor the reason causing the jaundice on the fixed time points [Baseline 10 Day (Baseline 10D), the 4th week after treatment, the 8th week after treatment, the 10th week after treatment, and the 12th week after treatment,]. Whether the jaundice occurred or not was also observed by naked eyes. The jaundice signs of mice which could be observed by naked eyes included: emaciation, swollen gall, yellow dark skin, and abnormal yellow limbs and tail. The survival period of each mouse during the experiment was recorded.

[2] = Jaundice observation and blood tests T-bilirubin, GOT/AST, GPT/ALT (Example 6); type: in vivo, NOD-SCID mice
Method: The luminescence and fluorescence-labelled cells were implanted into pancreas of experimental mice (50 NOD-SCID experimental mice purchased from BioLASCO Taiwan Co., Ltd) with a cell number of 5×10^5 by surgery. 10 days after the cell implantation to the pancreas of the animals, the baseline data was measured by noninvasive in vivo imaging system (IVIS). After the baseline IVIS data were obtained, all the experimental mice were randomly and evenly assigned into groups [the value of mean±3 s.d. of measured IVIS data was calculated, and the animals having an IVIS data within the standard range were assigned into control group (physiological saline was used), the group of the composition of the present invention obtained from preparation example (24 mg/kg the composition obtained for preparation example 1 was administrated directly into the stomachs of the mice through feeding tubes once per day), gemcitabine group (100 mg/kg gemcitabine was administered by intravenous injection twice per week), and combination group (24 mg/kg the composition of the present invention was administered daily and 100 mg/kg gemcitabine was administered twice per week), followed by the administration. […] The blood tests for total bilirubin (T-bilirubin), glutamate oxaloacetate transaminase/aspartate aminotransferase (GOT/AST), and glutamate pyruvate transaminase/alanine transaminase (GPT/ALT) of all experimental animals on the 9th week were conducted and the mice were observed whether the jaundice occurred or not by the naked eyes. The jaundice signs of mice which could be observed by naked eyes included: emaciation, swollen gall, yellow dark skin, and abnormal yellow limbs and tail.

[3] = test system: orthotopic xenograft pancreatic cancer (PANC-1); assay: Therapeutic effect (I) with gemcitabine: tumor growth (IVIS) and survival (Example 6); type: in vivo, NOD-SCID mice
Method: The human pancreatic adenocarcinoma cell line PANC-1 obtained from preparation example 2 was cloned and labelled with luminescence and fluorescence vector. The luminescence and fluorescence-labelled cells were implanted into pancreas of experimental mice (50 NOD-SCID experimental mice purchased from BioLASCO Taiwan Co., Ltd) with a cell number of 5×10^5 by surgery. 10 days after the cell implantation to the pancreas of the animals, the baseline data was measured by noninvasive in vivo imaging system (IVIS). After the baseline IVIS data were obtained, all the experimental mice were randomly and evenly assigned into groups [the value of mean±3 s.d. of measured IVIS data was calculated, and the animals having an IVIS data within the standard range were assigned into control group (physiological saline was used), the group of the composition of the present invention obtained from preparation example (24 mg/kg the composition obtained for preparation example 1 was administrated directly into the stomachs of the mice through feeding tubes once per day), gemcitabine group (100 mg/kg gemcitabine was administered by intravenous injection twice per week), and combination group (24 mg/kg the composition of the present invention was administered daily and 100 mg/kg gemcitabine was administered twice per week), followed by the administration. The dosage and dosage regimen of the composition of the present invention were decided based on the results of example 4 that there were no significant differences between the high-dose group and the low-dose group, so the dosage of 24 mg/kg was chosen for this experiment. The dosage and the dosage regimen of first-line drug for the pancreatic cancer were decided in accordance with two journal articles: Cook, Natalie, et al. “Gamma secretase inhibition promotes hypoxic necrosis in mouse pancreatic ductal adenocarcinoma.” Journal of Experimental Medicine 209.3 (2012): 437-444. and Olive, Kenneth P., et al. “Inhibition of Hedgehog signaling enhances delivery of chemotherapy in a mouse model of pancreatic cancer.” Science (2009), so that the gemcitabine was administered at the dosage of 100 mg/kg twice per week for the experiment. The time points of IVIS data measurement were: Baseline 10 Day (Baseline 10D), the 17th day (the 7th day after administration), the 24th day (14 days after treatment), the 31st day (21 days after treatment), and the 38th day (28 days after treatment) of the experiment. […] The survival period of each mouse during the experiment was recorded.

[4] = Jaundice observation and blood tests T-bilirubin, GOT, GPT (Example 7); type: in vivo; set-up: dose or concentration left out as unconfirmed; conditions: 13th week after treatment
Method: The luminescence and fluorescence-labelled cells were implanted into pancreas of experimental mice (40 NOD-SCID experimental mice purchased from BioLASCO Taiwan Co., Ltd) with a cell number of 5×10^5 by surgery. 10 days after the cell implantation to the pancreas of the animals, the baseline data was measured by noninvasive in vivo imaging system (IVIS). After the baseline IVIS data were obtained, all the experimental mice were randomly and evenly assigned into groups [the value of mean±3 s.d. of measured IVIS data was calculated, and the animals having an IVIS data within the standard range were assigned into control group (physiological saline was used), the group of the composition of the present invention (24 mg/kg the composition obtained for preparation example 1 was administrated daily), gemcitabine group (100 mg/kg gemcitabine was administered by intravenous injection twice per week continuously for three weeks and discontinuing gemcitabine on the fourth week. These four weeks were named as gemcitabine cycle. […] The survival period of each mouse during the experiment was recorded. […]

Compound: Nc1ccn([C@@H]2O[C@H](CO)[C@@H](O)C2(F)F)c(=O)n1 [gemcitabine]
- inhibition of the tumor growth of the orthotopic xenograft pancreatic cancer compared to control ([1]; 28th day after treatment): 50%-60%
- inhibition of the tumor growth of the orthotopic xenograft pancreatic cancer compared to control ([1]; 49th day after treatment): 50%-60%
- Average survival period ([1]; Example 7, control group 89.4): 114.7 days
- Survival period of the experimental mice ([1]; individual mice, 7 per group, Example 7): 109 Days (2×) and 113 Days and 119 Days and 140 Days and 105 Days and 108 Days
- jaundice ([2]; 9th week after treatment, gemcitabine continuously twice per week): jaundice was found
- T-bilirubin in the blood ([2]; 9 weeks after treatment, versus groups not treated with gemcitabine, FIG. 13A): significantly higher
- GOT in the blood ([2]; 9 weeks after treatment, versus groups not treated with gemcitabine, FIG. 13B): significantly higher
- GPT in the blood ([2]; 9 weeks after treatment, versus groups not treated with gemcitabine, FIG. 13C): significantly higher
- effect of inhibiting the tumor growth of the pancreatic cancer compared to control ([3]; 28 days after treatment, composition 24 mg/kg daily, gemcitabine 100 mg/kg i.v. twice per week): around 50%
- day of the experiment on which the first dead mouse was found ([3]; Example 6, control 60th day): 77 days
- day of the experiment on which the last dead mouse was found ([3]; Example 6, control 91st day): 100 days
- average survival period of the whole group ([3]; Example 6, control 80.1 days): 89.4 days
- number of mice with T-bilirubin higher than the standard [4]: one
